# Test results published in patent publication US12702644B2, “Pharmaceutical composition comprising ibuprofen and arginine” (priority 2021, dated 2026).
# Assays:
# [1] = test system: RAW 264.7 (murine macrophages); experiment: Superoxide anion generation (DHE fluorescence) in murine macrophages stimulated with LPS; assay type: cell-based; conditions: FIG. 3; LPS 25 μM/mL, 60 min; Ibu 10, 50, 100 μM alone; Arg 50 μM alone; PBS
# Experimental: The selected method measures the fluorescence of DHE generated from its interaction with superoxide anion (O2^−) to determine the inhibitory effect of the different formulations on the generation of O2^− in murine macrophages that have been stimulated with LPS. This method has been selected because, as Chen et al. [Chen, J., et al. (2013). Analysis of kinetics of dihydroethidium fluorescence with superoxide using xanthine oxidase and hypoxanthine assay. […]
# After this incubation, basal fluorescence was measured on a Fluoroskan Ascent plate reader, Labsystems using λex=485 nm and λem=538 nm. […] The fluorescence of the plate was then re-recorded using the same filter as in the basal condition.
# For the analysis of the results, the value corresponding to the basal fluorescence for each well was subtracted from each final time value. […]
# Murine macrophages were stimulated with LPS (25 μM/mL) and treated with arginine 50 μM alone or with different concentrations of alkaline hypertonic ibuprofen (10, 50, and 100 μM) in PBS saline solution. The cells were loaded with dihydroethidium (DHE) for 30 min at 37° C. and after 60 min of stimulation, normalized fluorescence was determined with the basal reading. […]
# [2] = test system: patients with cystic fibrosis; conditions: CF patients, cited from earlier work
Compound,inhibition of LPS-stimulated generation of superoxide anion [1],"FEV1 increase (average) ([2]; inhalation of 5 mL of 100 mg/mL twice daily, −8 ml after saline, difference not statistically significant) [mL]",exhaled NO ([2]; inhalation)
N=C(N)NCCC[C@H](N)C(=O)O [Arginine],not inhibited,–,–
CC(C)Cc1ccc(C(C)C(=O)O)cc1 (stereo not shown) [Ibuprofen],not inhibited,–,–
N=C(N)NCCC[C@H](N)C(=O)O [L-arginine],–,56,significant increase
